For assay [1], the system named is muscarinic responses in guinea pig longitudinal ileum and guinea pig paced left atria. Conditions: prototype compound, in words; cited from earlier work.
A further assay concerns the target T1, Muscarinic M2 (Rattus norvegicus, UniProt P10980).
T1 construct: displacement of ^3 H-NMS from total heart homogenate; from tissue; host or cells: total heart homogenate
T1 sequence (P10980 1-466): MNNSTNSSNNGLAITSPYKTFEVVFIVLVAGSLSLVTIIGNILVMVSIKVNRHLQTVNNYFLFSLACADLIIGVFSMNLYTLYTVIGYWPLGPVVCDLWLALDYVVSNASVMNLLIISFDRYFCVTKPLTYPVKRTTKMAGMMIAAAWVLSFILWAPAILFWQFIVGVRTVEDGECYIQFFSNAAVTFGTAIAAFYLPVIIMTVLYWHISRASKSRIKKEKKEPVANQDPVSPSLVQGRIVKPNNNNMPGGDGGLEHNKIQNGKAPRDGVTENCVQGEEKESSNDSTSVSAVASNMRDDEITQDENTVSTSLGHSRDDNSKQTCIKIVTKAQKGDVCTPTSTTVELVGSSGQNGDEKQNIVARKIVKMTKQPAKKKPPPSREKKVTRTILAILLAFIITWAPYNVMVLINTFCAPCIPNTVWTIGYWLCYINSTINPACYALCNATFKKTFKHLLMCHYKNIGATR
Description: Displacement of 3H-NMS from total heart homogenate (receptor binding studies in vitro). Here is the method: (§1) Muscarinic M1 activity was determined by studying the displacement of ^3 H-pirenzepine from cerebral cortex homogenate according to the procedure reported below: The cerebral cortex donors were male CD-COOBBS rats, 220-250 g body weight. The homogenization process was carried out in a Potter-Evelhjem apparatus in the presence of Na^+ /Mg^++ HEPES buffer; pH 7.4 (100 mM NaCl, 10 mM MgCl2, 20 mM HEPES); by filtering the suspension through two layers of cheesecloth. Binding curves for the under study compounds were derived indirectly from competition experiments against 0.5 nM ^3 H-pirenzepine labelling the muscarinic receptors of the cerebral cortex. 1 ml of the homogenate was incubated for 45 min at 30° C. in the presence of a maker ligand and different concentration of the cold ligand, conditions under which equilibrium was reached as determined by appropriate association experiments. The incubation was terminated by centrifugation (12,000 rpm for 3 min) at room temperature using an Eppendorf microcentrifuge. The resultant pellet was washed twice with 1.5 ml saline to remove the free radioactivity and it was allowed to dry. The tips of the tubes containing the pellet were cut off and 200 μl of tissue solubilizer (Lumasolve, Lumac) were added and left to stand overnight. Radioactivity was then counted after addition of 4 ml of liquid scintillation mixture (Dimilume/Toluene 1+10 v:v, Packard).
(§2) Assays were carried out in triplicate or quadruplicate and the non-specificbinding was defined as the radioactivity bound or entrapped in the pellet when the incubation medium contained 1 μM atropine sulphate. Non-specific binding averaged less than 30%. KD values (dissociation constants) were obtained by non-linear regression analysis on the basis of one binding site model with TOPFIT-pharmacokinetic programme package (G. Heinzel "Pharmacokinetics During Drug Development: Data Analysis and Evaluation Techniques" Eds. G. Bolzer and J. M. Van Rossum; p. 207, G. Fisher, New York, 1982) after correction for the radioligand occupancy shift according to the equation: KD =IC50 /1+*C/*KD, where *C and *KD represent the concentration and the dissociation constants of the radioligand, used respectively. Muscarinic M2 activity was examined by studing the displacement of ^3 H-NMS from total heart homogenate according to a procedure identical to the one already described hereinbefore for the muscarinic M1 activity.
(Loss of bound radioactivity is the signal in a displacement assay; it reports binding, not function.)

For the next assay, the target named is T2, guinea pig ileum (Cavia porcellus, UniProt H0W1Z3).
T2 construct: A 2 cm section of terminal ileum was prepared; from tissue; host or cells: isolated guinea pig terminal ileum
T2 sequence (H0W1Z3 1-590): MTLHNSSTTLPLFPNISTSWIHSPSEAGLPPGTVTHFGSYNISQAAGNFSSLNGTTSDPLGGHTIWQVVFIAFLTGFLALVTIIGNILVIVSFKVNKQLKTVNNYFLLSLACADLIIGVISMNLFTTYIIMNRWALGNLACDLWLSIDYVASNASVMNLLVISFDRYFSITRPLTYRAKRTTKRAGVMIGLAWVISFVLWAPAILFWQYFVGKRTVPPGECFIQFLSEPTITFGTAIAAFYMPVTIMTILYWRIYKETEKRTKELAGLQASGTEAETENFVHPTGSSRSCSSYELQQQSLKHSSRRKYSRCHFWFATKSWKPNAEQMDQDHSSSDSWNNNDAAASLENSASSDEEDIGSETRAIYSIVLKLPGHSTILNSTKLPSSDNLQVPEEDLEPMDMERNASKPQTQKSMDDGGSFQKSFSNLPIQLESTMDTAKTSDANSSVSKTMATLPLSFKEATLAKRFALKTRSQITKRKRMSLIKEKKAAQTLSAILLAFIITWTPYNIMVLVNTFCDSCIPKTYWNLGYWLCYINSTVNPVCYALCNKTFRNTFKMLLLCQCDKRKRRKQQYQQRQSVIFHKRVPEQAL
Description: Functional studies in vitro, isolated guinea pig ileum contracted with bethanechol. Here is the method: (§3) Antimuscarinic activity and selectivity were examined in in vitro by receptor binding studies in two tissues endowed with M1 and M2 muscarinic receptors (cerebral cortex, heart), in functional studies in isolated guinea pig ileum and guinea pig paced left atria and in in vivo functional tests on bronchi and heart of the anaesthetized guinea pig.
Responses were recorded isotonically. Kb values were calculated according to Arunlakshana and Shild (British Journal of Pharmacology 14, 48-54, 1959).

The next assay addresses T3, Muscarinic M1 (Rattus norvegicus, UniProt P08482).
T3 construct: displacement of ^3 H-pirenzepine from cerebral cortex homogenate; from tissue; host or cells: rat cerebral cortex homogenate
T3 sequence (P08482 1-460): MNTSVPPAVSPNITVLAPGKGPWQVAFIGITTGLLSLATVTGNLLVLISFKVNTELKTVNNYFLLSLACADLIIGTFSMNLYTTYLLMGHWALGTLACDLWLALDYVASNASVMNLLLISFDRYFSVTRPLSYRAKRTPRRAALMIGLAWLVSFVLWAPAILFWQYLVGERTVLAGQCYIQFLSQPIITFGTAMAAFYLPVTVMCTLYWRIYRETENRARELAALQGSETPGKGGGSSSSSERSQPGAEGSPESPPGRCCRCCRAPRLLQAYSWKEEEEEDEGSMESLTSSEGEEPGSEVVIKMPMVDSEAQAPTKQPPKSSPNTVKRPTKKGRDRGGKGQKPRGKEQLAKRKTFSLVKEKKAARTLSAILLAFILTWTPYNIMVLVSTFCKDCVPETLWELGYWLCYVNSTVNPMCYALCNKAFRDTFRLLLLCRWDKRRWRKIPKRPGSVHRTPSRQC
The assay can be described thus: Displacement of 3H-pirenzepine from cerebral cortex homogenate (receptor binding studies in vitro). Here is the method:
as §1, §2

Assay [2] has as its system Muscarinic receptors in the heart. Description: In vivo inhibition of acetylcholine-induced bradycardia in the anaesthetized guinea pig. Conditions: Cavia porcellus, iv, 5 min; i.v., 5 min before acetylcholine 50 μg/kg; dose in mol/kg; read-out: -log ED50, heart (converted). On the procedure:
(§4) Guinea pigs of either sex (550-600 g) were anaesthetized with urethane (1.4 g/kg, i.p.). A jugular vein was cannulated for injection of drugs. Heparin (200 I.U./kg) was injected i.v. A cannula was placed in the trachea and the animals were artificially respirated with oxygenated room air by means of a positive pressure pump (Braun-Melsungen) with a rate of 80 strokes/min. A side arm of the tracheal cannula was connected to a water manometer of 10 cm height. The respiratory volume was adjusted so that the maximal intratracheal pressure during inspiration just attained to a pressure of 10 cm water.
A cannula was placed in the left common carotid artery and arterial blood pressure was measured via a Bell and Howell 4-327 I pressure transducer connected to an IFD recording device. Cardiac frequency was measured by a ratemeter, triggered by the arterial pulsewave.
The drugs to be tested were injected via the jugular vein and 5 min later bronchial resistence (%) and the decrease in cardiac frequence (beats/min) to acetylcholine (50 μg/kg i.v. and i.a.) was measured. Dose response curves were constructed by plotting the percent inhibition of bronchoconstriction and bradycardia against the logarithm of the dose (mol/kg) of the drugs to be tested.

Assay [3] concerns Muscarinic receptors in the bronchi. Description: In vivo inhibition of acetylcholine-induced bronchoconstriction in the anaesthetized guinea pig. Conditions: Cavia porcellus, iv, 5 min; i.v., 5 min before acetylcholine 50 μg/kg; dose in mol/kg; read-out: -log ED50, bronchi (converted). Here is the method: as §4
Excepts for some modifications, the effects of the drugs on bronchial tone was measured according to the method described by Konzett and Rossler (1940). The bronchoconstriction-evoked volume of respiratory gas mixture (overflow) passing through the water manometer was measured by means of a FLEISCH tube pneumotachometer (Model 0000) connected to a SP 2040 D differential pressure transducer (HSE). Registration was performed on a IFD recording device. […]
The drugs to be tested were injected via the jugular vein and 5 min later bronchial resistence (%) and the decrease in cardiac frequence (beats/min) to acetylcholine (50 μg/kg i.v. and i.a.) was measured. […]

In the next assay the target is T4, guinea pig left atria (Cavia porcellus, UniProt H0VRN8).
T4 construct: guinea pig paced left atria; from tissue; host or cells: isolated guinea pig left atria
T4 sequence (H0VRN8 1-466): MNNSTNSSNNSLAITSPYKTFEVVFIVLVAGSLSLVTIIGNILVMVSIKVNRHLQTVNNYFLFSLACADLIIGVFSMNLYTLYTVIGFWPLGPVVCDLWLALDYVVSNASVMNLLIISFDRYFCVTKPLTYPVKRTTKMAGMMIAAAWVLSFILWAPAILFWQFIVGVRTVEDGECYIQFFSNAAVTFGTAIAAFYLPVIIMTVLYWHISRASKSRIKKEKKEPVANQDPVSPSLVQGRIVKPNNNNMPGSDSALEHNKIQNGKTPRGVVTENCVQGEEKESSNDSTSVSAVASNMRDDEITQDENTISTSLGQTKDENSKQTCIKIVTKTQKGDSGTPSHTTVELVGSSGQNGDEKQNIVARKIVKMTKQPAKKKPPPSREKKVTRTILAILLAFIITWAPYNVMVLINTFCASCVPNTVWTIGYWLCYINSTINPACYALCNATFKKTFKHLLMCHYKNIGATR
The assay can be described thus: Functional studies in vitro, guinea pig paced left atria, bethanechol negative inotropic effect.
Excerpt: as §3
The tissues were mounted in the Ewen's solution (millimolar: NaCl, 131.6; KCl, 5.6; CaCl2, 2.16; NaHCO3, 24.9; NaH2 PO4, 1.03; glucose, 11; and sucrose, 13) at 32° C. and stimulated through platinum electrodes by squarewave pulses (2 msec, 3 Hz, 100% above threshold voltage, delivered by a Grass S 48 stimulator). Inotropic activity was recorded isometrically (Statham transducer, Battaglia Rangoni ESO 300 recorder). Cumulative concentrations of bethanecol (1-30 μM) were used to induce a negative inotropic effect. Kb values were estimated as above described.

Assay [4] deals with receptors with low affinity to Pirenzepine (M2 type). Conditions: mainly in effector organs; cited from earlier work.
Setting [5] is: total heart homogenate, 3H-NMS, read-out: KD, M2 (heart).

Structures are written as SMILES. Read-outs that look alike come from different tables or passages of the source.

For `CCN(CC)CC1CCCCN1CC(=O)N1c2ccccc2C(=O)Nc2cccnc21` (centres unmarked) [AF-DX-116, 11-2-{[2-(diethylamino)methyl-1-piperidinyl]acetyl}-5,11-dihydro-6H-pyrido (2,3-b)(1,4)benzodiazepin-6-one], the “tissue selectivity among muscarinic antagonists” value in assay [1] is recorded as “cardioselective”.

`C[N+]1(C)CCC(OC(=O)C(c2ccccc2)c2ccccc2)CC1` [Compound 4-DAMP, 4-diphenylacetoxy-N-methylpiperidine methobromide]: the “tissue selectivity among muscarinic antagonists” value in assay [1] was “smooth muscle selective”.

The Kd is the free concentration of one partner at which half of the binding sites on the other are occupied at equilibrium, for simple one-to-one binding. The term ED50 denotes the dose that gives a 50% effect, or the effect in half of the subjects. On to `CN1[C@@H]2CC[C@H]1C[C@@H](OC(=O)N1Cc3ccccc3NC1=O)C2` [Compound 16, 1,4-dihydro-2(H)-2-oxo-3-quinazoline carboxylic acid-(endo-8-methyl-8-azabicyclo[3.2.1]oct-3-yl), ester], for which the Kd at Muscarinic M2 stood at 133 nM; on Muscarinic M1 (cerebral cortex homogenate, 0.5 nM 3H-pirenzepine, 45 min at 30° C., pH 7.4, read-out: KD, M1 (cortex)), 1 nM. Also, the Kb is 1.5 nM at guinea pig ileum and 122 nM at guinea pig left atria. In addition, the figures for the 50% effective dose (ED50) in assay [2] and in assay [3] were 1 µmol/kg and 0.00794 µmol/kg, respectively.

Consider `CN1[C@@H]2CC[C@H]1C[C@@H](NC(=O)N1Cc3ccccc3NC1=O)C2` [Compound 23, N-(endo-8-methyl-8-azabicyclo[3.2.1]oct-3-yl)-1,4-dihydro-2(H)-2-oxo-3-quinazoline carboxamide], for which the Kd at Muscarinic M2 worked out at 60 nM; on Muscarinic M1 it was 1 nM. The Kb at guinea pig ileum (functional studies, guinea pig ileum, bethanechol 0.3-10 μM, read-out: Kb, ileum) was 0.6 nM; on guinea pig left atria (functional studies, guinea pig paced left atria, bethanechol 1-30 μM, 32° C., read-out: Kb, heart), 22 nM.

Take `CN1[C@@H]2CC[C@H]1C[C@@H](OC(=O)N1Cc3ccc(Cl)cc3NC1=O)C2` [Compound 25, 7-chloro-1,4-dihydro-2(H)-2-oxo-3-quinazoline carboxylic acid-(endo-8-methyl-8-azabicyclo[3.2.1]oct-3-yl), ester]: the figures for the dissociation constant Kd at Muscarinic M2 (setting [5]) and at Muscarinic M1 were 1470 nM and 7 nM, respectively. The figures for the Kb at guinea pig ileum and at guinea pig left atria were 16 nM and 2200 nM, respectively.

Take `CN1[C@@H]2CC[C@H]1C[C@@H](OC(=O)N1Cc3cc(F)ccc3NC1=O)C2` [Compound 26, 1,4-dihydro-6-fluoro-2(H)-2-oxo-3-quinazoline carboxylic acid-(endo-8-methyl-8-azabicyclo[3.2.1]oct-3-yl), ester]: the Kd on Muscarinic M2 (setting [5]) was 400 nM; on Muscarinic M1 it was 3 nM. In addition, the Kb worked out at 4.5 nM at guinea pig ileum and 250 nM on guinea pig left atria.

As to `CN1C2CCC1CC(OC(=O)N1C(=O)Nc3ccccc3C1O)C2` (stereo not drawn) [Compound 49, 1,4-dihydro-4-hydroxy-2(H)-2-oxo-3-quinazolinecarboxylic acid-(endo-8-methyl-8-azabicyclo[3.2.1]oct-3-yl), ester], the results for the dissociation constant Kd at Muscarinic M2 (setting [5]) and at Muscarinic M1 were 250 nM and 2 nM, respectively. Moreover, the Kb stood at 1 nM on guinea pig ileum and 75 nM at guinea pig left atria.

Turning to `CN1CCN(CC(=O)N2c3ccccc3C(=O)Nc3cccnc32)CC1` [Pirenzepine], the “affinity at M2 type receptors” value in assay [4] is “low affinity”.

As usually defined, the EC50 is the concentration that produces a half-maximal response. For `CC(C[N+](C)(C)C)OC(N)=O` (centres unmarked) [bethanechol, reference compound], the EC50 at guinea pig ileum (guinea pig terminal ileum, Tyrode solution, cumulative conc. 0.3-10 μM, read-out: EC50 of bethanechol (contraction)) came to 1500 nM.

The values above are taken from US5106851A, “Benzofused-N-containing heterocycle derivatives” (Istituto de Angeli S.p.A., priority 1989, dated 1992).
